Calls of active or inactive are those of the source. No cut-off for these calls is given here.
What was measured:
[1] = system: BGC-823; test: Induction of apoptosis in human BGC-823 cells assessed as necrotic cells at 1 uM incubated for 48 hrs by Annexin V-FITC/PI staining based flow cytometric analysis ( Rvb = 1.79 %); type: functional
[2] = system: Cell membrane; test: Induction of mitochondrial membrane potential loss in human BGC-823 cells assessed as increase in number of cells with J-monomers by measuring green fluorescence at 1 uM incubated for 24 hrs in presence of NAC by JC-1 staining based flow cytometric analysis (reference value: 0.33%); type: cell membranes
[3] = system: Cell membrane; test: Induction of mitochondrial membrane potential loss in human BGC-823 cells assessed as decrease in number of cells with J-aggregates by measuring red fluorescence at 0.5 uM incubated for 24 hrs by JC-1 staining based flow cytometric analysis (reference value: 99.7 %); type: cell membranes; design: scale not given: the % may be the effect or the level left
[4] = system: BGC-823; test: Induction of apoptosis in human BGC-823 cells assessed as late apoptotic cells at 0.5 uM incubated for 48 hrs by Annexin V-FITC/PI staining based flow cytometric analysis ( Rvb = 5.61 %); type: functional
[5] = system: BGC-823; test: Induction of ROS generation in human BGC-823 cells assessed as cells with green fluorescence at 0.25 uM incubated for 24 hrs in presence of NAC by DCFH-DA staining based analysis relative to control; type: functional
[6] = AUC (0 to infinity) in rat at 10 mg/kg, ip measured after 24 hrs by LC-MS/MS analysis; type: ADME, organism-based; conditions: in vivo
[7] = system: BGC-823; test: Induction of apoptosis in human BGC-823 cells assessed as necrotic cells at 0.25 uM incubated for 48 hrs by Annexin V-FITC/PI staining based flow cytometric analysis ( Rvb = 1.79 %); type: functional
[8] = system: Cell membrane; test: Induction of mitochondrial membrane potential loss in human BGC-823 cells assessed as decrease in number of cells with J-aggregates by measuring red fluorescence at 0.25 uM incubated for 24 hrs by JC-1 staining based flow cytometric analysis (reference value: 99.7 %); type: cell membranes; design: scale not given: the % may be the effect or the level left
[9] = Cmax in rat at 10 mg/kg, iv measured after 24 hrs by LC-MS/MS analysis; type: ADME, organism-based; conditions: in vivo
[10] = system: BGC-823; test: Induction of apoptosis in human BGC-823 cells assessed as early apoptotic cells at 1 uM incubated for 48 hrs by Annexin V-FITC/PI staining based flow cytometric analysis ( Rvb = 1.68 %); type: functional
[11] = AUC (0 to t) in rat at 10 mg/kg, ip measured after 24 hrs by LC-MS/MS analysis; type: ADME, organism-based; conditions: in vivo
[12] = system: Cell membrane; test: Induction of mitochondrial membrane potential loss in human BGC-823 cells assessed as decrease in number of cells with J-aggregates by measuring red fluorescence at 1 uM incubated for 24 hrs by JC-1 staining based flow cytometric analysis (reference value: 99.7 %); type: cell membranes; design: scale not given: the % may be the effect or the level left
[13] = system: BGC-823; test: Induction of apoptosis in human BGC-823 cells assessed as viable cells at 0.25 uM incubated for 48 hrs by Annexin V-FITC/PI staining based flow cytometric analysis ( Rvb = 90.09 %); type: functional; conditions: read-out: Activity
[14] = system: BGC-823; test: Induction of apoptosis in human BGC-823 cells assessed as necrotic cells at 0.5 uM incubated for 48 hrs by Annexin V-FITC/PI staining based flow cytometric analysis ( Rvb = 1.79 %); type: functional
[15] = Half-life in rat at 10 mg/kg, iv measured after 24 hrs by LC-MS/MS analysis; type: ADME, organism-based; conditions: in vivo
[16] = system: BGC-823; test: Cell cycle arrest in human BGC-823 cells assessed as accumulation of cells at G2/M phase incubated for 24 hrs by PI staining based flow cytometric analysis; type: functional
[17] = Apparent volume of distribution in rat at 10 mg/kg, iv measured after 24 hrs by LC-MS/MS analysis; type: ADME, organism-based; conditions: in vivo, read-out: Vz
[18] = system: BGC-823; test: Induction of ROS generation in human BGC-823 cells assessed as cells with green fluorescence at 1 uM incubated for 24 hrs by DCFH-DA staining based analysis relative to control; type: functional
[19] = AUC (0 to infinity) in rat at 10 mg/kg, iv measured after 24 hrs by LC-MS/MS analysis; type: ADME, organism-based; conditions: in vivo
[20] = system: BGC-823; test: Induction of ROS generation in human BGC-823 cells assessed as cells with green fluorescence at 0.25 uM incubated for 24 hrs by DCFH-DA staining based analysis relative to control; type: functional
[21] = system: BGC-823; test: Induction of apoptosis in human BGC-823 cells assessed as viable cells at 0.5 uM incubated for 48 hrs by Annexin V-FITC/PI staining based flow cytometric analysis ( Rvb = 90.09 %); type: functional; conditions: read-out: Activity
[22] = system: BGC-823; test: Induction of apoptosis in human BGC-823 cells assessed as late apoptotic cells at 0.25 uM incubated for 48 hrs by Annexin V-FITC/PI staining based flow cytometric analysis ( Rvb = 5.61 %); type: functional
[23] = Binding affinity to DTT in PBS assessed as UV peak appearance at 288 nm at 360 uM by UV-Vis spectra analysis
[24] = system: BGC-823; test: Induction of ROS generation in human BGC-823 cells assessed as cells with green fluorescence at 0.5 uM incubated for 24 hrs by DCFH-DA staining based analysis relative to control; type: functional
[25] = AUC (0 to t) in rat at 10 mg/kg, iv measured after 24 hrs by LC-MS/MS analysis; type: ADME, organism-based; conditions: in vivo
[26] = GSH reactivity in human BGC-823 cells assessed as GSSG/GSH ratio at 0.4 uM incubated for 24 hrs by microplate reader analysis (reference value: 0.34); type: ADME, cell-based; conditions: bgc-823, 24 h
[27] = Half-life in rat at 10 mg/kg, ip measured after 24 hrs by LC-MS/MS analysis; type: ADME, organism-based; conditions: in vivo
[28] = system: Cell membrane; test: Induction of mitochondrial membrane potential loss in human BGC-823 cells assessed as decrease in number of cells with J-aggregates by measuring red fluorescence at 1 uM incubated for 24 hrs in presence of NAC by JC-1 staining based flow cytometric analysis (reference value: 99.7 %); type: cell membranes; design: scale not given: the % may be the effect or the level left
[29] = system: Cell membrane; test: Induction of mitochondrial membrane potential loss in human BGC-823 cells assessed as increase in number of cells with J-monomers by measuring green fluorescence at 1 uM incubated for 24 hrs by JC-1 staining based flow cytometric analysis (reference value: 0.33%); type: cell membranes
[30] = Cmax in rat at 10 mg/kg, ip measured after 24 hrs by LC-MS/MS analysis; type: ADME, organism-based; conditions: in vivo
[31] = system: BGC-823; test: Induction of apoptosis in human BGC-823 cells assessed as viable cells at 1 uM incubated for 48 hrs by Annexin V-FITC/PI staining based flow cytometric analysis ( Rvb = 90.09 %); type: functional; conditions: read-out: Activity
[32] = Clearance in rat at 10 mg/kg, ip measured after 24 hrs by LC-MS/MS analysis; type: ADME, organism-based; conditions: in vivo
[33] = system: Cell membrane; test: Induction of mitochondrial membrane potential loss in human BGC-823 cells assessed as increase in number of cells with J-monomers by measuring green fluorescence at 0.5 uM incubated for 24 hrs by JC-1 staining based flow cytometric analysis (reference value: 0.33%); type: cell membranes
[34] = system: BGC-823; test: Induction of apoptosis in human BGC-823 cells assessed as late apoptotic cells at 1 uM incubated for 48 hrs by Annexin V-FITC/PI staining based flow cytometric analysis ( Rvb = 5.61 %); type: functional
[35] = system: BGC-823; test: Induction of apoptosis in human BGC-823 cells assessed as early apoptotic cells at 0.5 uM incubated for 48 hrs by Annexin V-FITC/PI staining based flow cytometric analysis ( Rvb = 1.68 %); type: functional
[36] = Clearance in rat at 10 mg/kg, iv measured after 24 hrs by LC-MS/MS analysis; type: ADME, organism-based; conditions: in vivo
[37] = Apparent volume of distribution in rat at 10 mg/kg, ip measured after 24 hrs by LC-MS/MS analysis; type: ADME, organism-based; conditions: in vivo
[38] = system: Cell membrane; test: Induction of mitochondrial membrane potential loss in human BGC-823 cells assessed as increase in number of cells with J-monomers by measuring green fluorescence at 0.25 uM incubated for 24 hrs by JC-1 staining based flow cytometric analysis (reference value: 0.33%); type: cell membranes
[39] = system: BGC-823; test: Induction of apoptosis in human BGC-823 cells assessed as early apoptotic cells at 0.25 uM incubated for 48 hrs by Annexin V-FITC/PI staining based flow cytometric analysis ( Rvb = 1.68 %); type: functional

Activity [2]: 3.14% | Activity [3]: 84.2% | AUC [6]: 1163 ng·h/mL | Activity [8]: 97.8% | Cmax [9]: 19000 ng/mL | AUCt [11]: 7310 ng·h/mL | Activity [12]: 24.5% | half-life [15]: 5.4 h | Vd [17]: 3.99 L/kg | AUC(0-inf) [19]: 20200 ng·h/mL | Activity [23]: Active | AUC(0-t) at 24 h [25]: 20000 ng·h/mL | Ratio [26]: 1.08 | half-life [27]: 16.5 h | Activity [28]: 96.7% | Activity [29]: 77.4% | Cmax [30]: 881 ng/mL | CL [32]: 14.4 mL/min/kg | Activity [33]: 15.4% | clearance [36]: 8.4 mL/min/kg | Vz [37]: 20.63 L/kg | Activity [38]: 2.06%
Compound: CC1(C)CC[C@]2(C(=O)OCCCCOC(=O)c3ccc(O)cc3)CC[C@]3(C)[C@H](C(=O)C=C4[C@@]5(C)C=C(C#N)C(=O)C(C)(C)[C@@H]5CC[C@]43C)[C@@H]2C1
Activity [1]: 5.52% | Activity [4]: 16.1% | Activity [5]: 67.2% | Activity [7]: 0.49% | Activity [10]: 14% | viability at 0.25 µM [13]: 90.6% | Activity [14]: 5.79% | Activity [16]: Dose-Dependent Effect | Activity [18]: 95.3% | Activity [20]: 23.2% | viability at 0.5 µM [21]: 74.7% | Activity [22]: 5.9% | Activity [24]: 61.6% | viability at 1 µM [31]: 50.1% | Activity [34]: 30.4% | Activity [35]: 3.44% | Activity [39]: 3.01%
